Where a SMILES comes first, the peptide text is derived from it. Bridges are numbered along the chain shown (N, C = ends). [ ]: non-standard residue; d: D form. Phe(3,4,5-F3) = N[C@@H](Cc1cc(F)c(F)c(F)c1)C(=O)O; Phe(3,4-F2) = N[C@@H](Cc1ccc(F)c(F)c1)C(=O)O; d(cisHyp) = O=C(O)[C@H]1C[C@@H](O)CN1; NMeF = CN[C@@H](Cc1ccccc1)C(=O)O; dNMeF = CN[C@H](Cc1ccccc1)C(=O)O; dHyp = O=C(O)[C@H]1C[C@H](O)CN1; NMeNle = CCCC[C@H](NC)C(=O)O; Orn = NCCC[C@H](N)C(=O)O; Dab = NCC[C@H](N)C(=O)O
The molecules below were run against T1, Human PD-L1/PD-1 (Homo sapiens, UniProt Q9NZQ7) (assay: HTRF Human PD-L1/PD-1 binding assay (PD-1-Ig/PD-L1-His)). Conditions: PD-L1-His 10 nM, PD-1-Ig 20 nM; class symbol; read-out: HTRF Human PD-L1/PD-1 Binding Assay IC50 Range.
T1 construct: TVMV protease cleavage site (C); made in house; host or cells: HEK293T cells
T1 sequence (Q9NZQ7 with tags, fused parts or gaps): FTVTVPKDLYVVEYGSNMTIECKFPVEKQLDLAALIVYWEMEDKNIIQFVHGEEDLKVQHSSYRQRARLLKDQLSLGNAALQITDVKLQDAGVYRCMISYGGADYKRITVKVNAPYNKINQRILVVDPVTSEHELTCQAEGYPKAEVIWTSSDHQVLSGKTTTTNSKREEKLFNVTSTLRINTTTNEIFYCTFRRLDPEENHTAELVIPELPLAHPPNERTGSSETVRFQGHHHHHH
Summary of the method: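 Truncated Fc-fused human PD-1 (aa 25-167) at 20 nM and His-tagged PD-L1 (aa 18-239) at 10 nM final are used, with peptides preincubated 15 min with PD-L1. Detection uses europium-cryptate anti-Ig and APC anti-His antibodies; 665/620 nm ratio.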

IC50, 1 to 9.9 nM:
CCCC[C@H]1C(=O)N2CCC[C@@H]2C(=O)N[C@@H](CC(=O)O)C(=O)N[C@@H](C(C)C)C(=O)N(C)[C@@H](Cc2ccccc2)C(=O)N[C@@H](CCC(=O)O)C(=O)N2C[C@@H](O)C[C@@H]2C(=O)N[C@@H](Cc2c[nH]c3ccccc23)C(=O)N[C@@H](Cc2ccc(O)cc2)C(=O)N[C@@H](CCCN)C(=O)N[C@H](C(=O)NCC(N)=O)CSCC(=O)N[C@@H](Cc2cc(F)c(F)c(F)c2)C(=O)N(C)[C@@H](Cc2ccccc2)C(=O)N1C [Example 9286] ({CH2CO}-[Phe(3,4,5-F3)][NMeF][NMeNle][dP]DV[NMeF]E[dHyp]WY[Orn]CG-NH2; thioether N-13)
CCCC[C@H]1C(=O)N2CCC[C@@H]2C(=O)N[C@@H](CC(=O)O)C(=O)N[C@@H](C(C)C)C(=O)N(C)[C@@H](Cc2ccccc2)C(=O)N[C@@H](Cc2ccc(O)cc2)C(=O)N2C[C@@H](O)C[C@@H]2C(=O)N[C@@H](Cc2c[nH]c3ccccc23)C(=O)N[C@@H](Cc2ccc(O)cc2)C(=O)N[C@@H](CC(C)C)C(=O)N[C@H](C(=O)NCC(N)=O)CSCC(=O)N[C@@H](Cc2cc(F)c(F)c(F)c2)C(=O)N(C)[C@@H](Cc2ccccc2)C(=O)N1C [Example 9287] ({CH2CO}-[Phe(3,4,5-F3)][NMeF][NMeNle][dP]DV[NMeF]Y[dHyp]WYLCG-NH2; thioether N-13)
CCCC[C@H]1C(=O)N2CCC[C@@H]2C(=O)N[C@@H](CC(=O)O)C(=O)N[C@@H](C(C)C)C(=O)N(C)[C@@H](Cc2ccccc2)C(=O)N[C@@H](Cc2ccc(O)cc2)C(=O)N2C[C@@H](O)C[C@@H]2C(=O)N[C@@H](Cc2c[nH]c3ccccc23)C(=O)N[C@@H](Cc2ccc(O)cc2)C(=O)N[C@@H](CCCN)C(=O)N[C@H](C(=O)NCC(N)=O)CSCC(=O)N[C@@H](Cc2cc(F)c(F)c(F)c2)C(=O)N(C)[C@@H](Cc2ccccc2)C(=O)N1C [Example 9288] ({CH2CO}-[Phe(3,4,5-F3)][NMeF][NMeNle][dP]DV[NMeF]Y[dHyp]WY[Orn]CG-NH2; thioether N-13)
CCCC[C@H]1C(=O)N2C[C@H](O)C[C@@H]2C(=O)N[C@@H](CC(=O)O)C(=O)N[C@@H](C(C)C)C(=O)N(C)[C@@H](Cc2ccccc2)C(=O)N[C@@H](CC(=O)O)C(=O)N2C[C@H](O)C[C@@H]2C(=O)N[C@@H](Cc2c[nH]c3ccccc23)C(=O)N[C@@H](Cc2ccc(O)cc2)C(=O)N[C@@H](CC(C)C)C(=O)N[C@H](C(=O)NCC(N)=O)CSCC(=O)N[C@@H](Cc2ccc(F)c(F)c2)C(=O)N(C)[C@@H](Cc2ccccc2)C(=O)N1C [Example 9289] ({CH2CO}-[Phe(3,4-F2)][NMeF][NMeNle][d(cisHyp)]DV[NMeF]D[d(cisHyp)]WYLCG-NH2; thioether N-13)
CCCC[C@H]1C(=O)N2C[C@H](O)C[C@@H]2C(=O)N[C@@H](CC(=O)O)C(=O)N[C@@H](C(C)C)C(=O)N(C)[C@@H](Cc2ccccc2)C(=O)N[C@@H](CC(N)=O)C(=O)N2C[C@H](O)C[C@@H]2C(=O)N[C@@H](Cc2c[nH]c3ccccc23)C(=O)N[C@@H](Cc2ccc(O)cc2)C(=O)N[C@@H](CC(C)C)C(=O)N[C@H](C(=O)NCC(N)=O)CSCC(=O)N[C@@H](Cc2ccc(F)c(F)c2)C(=O)N(C)[C@@H](Cc2ccccc2)C(=O)N1C [Example 9292]
CCCC[C@H]1C(=O)N2C[C@H](O)C[C@@H]2C(=O)N[C@@H](CC(=O)O)C(=O)N[C@@H](C(C)C)C(=O)N(C)[C@@H](Cc2ccccc2)C(=O)N[C@@H](CCCCN)C(=O)N2C[C@H](O)C[C@@H]2C(=O)N[C@@H](Cc2c[nH]c3ccccc23)C(=O)N[C@@H](Cc2ccc(O)cc2)C(=O)N[C@@H](CC(C)C)C(=O)N[C@H](C(=O)NCC(N)=O)CSCC(=O)N[C@@H](Cc2ccc(F)c(F)c2)C(=O)N(C)[C@@H](Cc2ccccc2)C(=O)N1C [Example 9294] ({CH2CO}-[Phe(3,4-F2)][NMeF][NMeNle][d(cisHyp)]DV[NMeF]K[d(cisHyp)]WYLCG-NH2; thioether N-13)
CCCC[C@H]1C(=O)N2C[C@H](O)C[C@@H]2C(=O)N[C@@H](CC(=O)O)C(=O)N[C@@H](C(C)C)C(=O)N(C)[C@H](Cc2ccccc2)C(=O)N[C@@H](CCCCN)C(=O)N2C[C@H](O)C[C@@H]2C(=O)N[C@@H](Cc2c[nH]c3ccccc23)C(=O)N[C@@H](Cc2ccc(O)cc2)C(=O)N[C@@H](CC(C)C)C(=O)N[C@H](C(=O)NCC(N)=O)CSCC(=O)N[C@@H](Cc2ccc(F)c(F)c2)C(=O)N(C)[C@@H](Cc2ccccc2)C(=O)N1C [Example 9295] ({CH2CO}-[Phe(3,4-F2)][NMeF][NMeNle][d(cisHyp)]DV[dNMeF]K[d(cisHyp)]WYLCG-NH2; thioether N-13)
CCCC[C@H]1C(=O)N2C[C@H](O)C[C@@H]2C(=O)N[C@@H](CC(=O)O)C(=O)N[C@@H](C(C)C)C(=O)N(C)[C@@H](Cc2ccccc2)C(=O)N[C@@H](CCCN)C(=O)N2C[C@H](O)C[C@@H]2C(=O)N[C@@H](Cc2c[nH]c3ccccc23)C(=O)N[C@@H](Cc2ccc(O)cc2)C(=O)N[C@@H](CC(C)C)C(=O)N[C@H](C(=O)NCC(N)=O)CSCC(=O)N[C@@H](Cc2ccc(F)c(F)c2)C(=O)N(C)[C@@H](Cc2ccccc2)C(=O)N1C [Example 9296] ({CH2CO}-[Phe(3,4-F2)][NMeF][NMeNle][d(cisHyp)]DV[NMeF][Orn][d(cisHyp)]WYLCG-NH2; thioether N-13)
CCCC[C@H]1C(=O)N2C[C@H](O)C[C@@H]2C(=O)N[C@@H](CC(=O)O)C(=O)N[C@@H](C(C)C)C(=O)N(C)[C@H](Cc2ccccc2)C(=O)N[C@@H](CCCN)C(=O)N2C[C@H](O)C[C@@H]2C(=O)N[C@@H](Cc2c[nH]c3ccccc23)C(=O)N[C@@H](Cc2ccc(O)cc2)C(=O)N[C@@H](CC(C)C)C(=O)N[C@H](C(=O)NCC(N)=O)CSCC(=O)N[C@@H](Cc2ccc(F)c(F)c2)C(=O)N(C)[C@@H](Cc2ccccc2)C(=O)N1C [Example 9297] ({CH2CO}-[Phe(3,4-F2)][NMeF][NMeNle][d(cisHyp)]DV[dNMeF][Orn][d(cisHyp)]WYLCG-NH2; thioether N-13)
CCCC[C@H]1C(=O)N2C[C@H](O)C[C@@H]2C(=O)N[C@@H](CC(=O)O)C(=O)N[C@@H](C(C)C)C(=O)N(C)[C@@H](Cc2ccccc2)C(=O)N[C@@H](CCN)C(=O)N2C[C@H](O)C[C@@H]2C(=O)N[C@@H](Cc2c[nH]c3ccccc23)C(=O)N[C@@H](Cc2ccc(O)cc2)C(=O)N[C@@H](CC(C)C)C(=O)N[C@H](C(=O)NCC(N)=O)CSCC(=O)N[C@@H](Cc2ccc(F)c(F)c2)C(=O)N(C)[C@@H](Cc2ccccc2)C(=O)N1C [Example 9298] ({CH2CO}-[Phe(3,4-F2)][NMeF][NMeNle][d(cisHyp)]DV[NMeF][Dab][d(cisHyp)]WYLCG-NH2; thioether N-13)
CCCC[C@H]1C(=O)N2C[C@H](O)C[C@@H]2C(=O)N[C@@H](CC(=O)O)C(=O)N[C@@H](C(C)C)C(=O)N(C)[C@H](Cc2ccccc2)C(=O)N[C@@H](CCN)C(=O)N2C[C@H](O)C[C@@H]2C(=O)N[C@@H](Cc2c[nH]c3ccccc23)C(=O)N[C@@H](Cc2ccc(O)cc2)C(=O)N[C@@H](CC(C)C)C(=O)N[C@H](C(=O)NCC(N)=O)CSCC(=O)N[C@@H](Cc2ccc(F)c(F)c2)C(=O)N(C)[C@@H](Cc2ccccc2)C(=O)N1C [Example 9299] ({CH2CO}-[Phe(3,4-F2)][NMeF][NMeNle][d(cisHyp)]DV[dNMeF][Dab][d(cisHyp)]WYLCG-NH2; thioether N-13)
